Results: the NIST ThermoML archive (doi:10.1021/je100725a)
± gives the expanded uncertainty stated by the source.

Tests used:
[1] = Crystal
[2] = Molar enthalpy of transition or fusion; settings: Crystal; DSC

Compound	Normal melting temperature [1]	Normal melting temperature ([1]; DTA)	Molar enthalpy of transition or fusion [2]
CCCCCC(C)=O [2-heptanone]	-36 ± 0.6 °C	-36.6 ± 0.4 °C	4.56 ± 0.108 kcal/mol
CCCCCCCCCCO [decan-1-ol]	6.4 ± 0.6 °C		7.5 ± 0.165 kcal/mol
CCCCCCCCCCCCO [dodecan-1-ol]	23.5 ± 0.6 °C		9.02 ± 0.194 kcal/mol
CCCCCCCCO [octan-1-ol]	-14.5 ± 0.6 °C		5.66 ± 0.129 kcal/mol

Further lines, results first:

Normal melting temperature [1]	Normal melting temperature ([1]; DTA)	Molar enthalpy of transition or fusion [2]	Compound
21 ± 0.6 °C	21.12 ± 0.39 °C	9.44 ± 0.201 kcal/mol	CCCCCCCCCCC(C)=O [2-dodecanone]
-9.8 ± 0.6 °C	-9.47 ± 0.39 °C	6.54 ± 0.146 kcal/mol	CCCCCCCC(C)=O [2-nonanone]
27.7 ± 0.6 °C	28.60 ± 0.39 °C	10.5 ± 0.222 kcal/mol	CCCCCCCCCCCC(C)=O [2-tridecanone]
11.7 ± 0.6 °C	12.11 ± 0.39 °C		CCCCCCCCCC(C)=O [2-undecanone]
